Assay results taken from ChEMBL document CHEMBL1201862, “PubChem BioAssay data set” (2004).
The source made the active and inactive calls. Rule as the data show it, for most assays here: active = IC50 of 20 µM or less and inactive = more.

What was measured:
Format in all cases: functional
Fatty acid synthase [1] = target: T1, Fatty acid synthase (Homo sapiens, UniProt P49327); test: inhibition of human FAS-TE enzyme activity – biochemical, kinetic fluorescence intensity, dose response (AID 624326);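 also: rate of fluorescence rise from hydrolysis of a fluorogenic O-methyl fluorescein ester substrate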
[2] = target: Apoptotic protease-activating factor 1 (Homo sapiens, UniProt O14727)
Fatty acid synthase [3] = target: T1, Fatty acid synthase; test: inhibition of human FAS-TE enzyme activity – biochemical, endpoint fluorescence intensity, uHTS hits, dose response (AID 624327);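 also: fluorescence from hydrolysis of an O-methyl fluorescein acyl ester substrate by the enzyme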

T1 sequence (P49327 whole entry): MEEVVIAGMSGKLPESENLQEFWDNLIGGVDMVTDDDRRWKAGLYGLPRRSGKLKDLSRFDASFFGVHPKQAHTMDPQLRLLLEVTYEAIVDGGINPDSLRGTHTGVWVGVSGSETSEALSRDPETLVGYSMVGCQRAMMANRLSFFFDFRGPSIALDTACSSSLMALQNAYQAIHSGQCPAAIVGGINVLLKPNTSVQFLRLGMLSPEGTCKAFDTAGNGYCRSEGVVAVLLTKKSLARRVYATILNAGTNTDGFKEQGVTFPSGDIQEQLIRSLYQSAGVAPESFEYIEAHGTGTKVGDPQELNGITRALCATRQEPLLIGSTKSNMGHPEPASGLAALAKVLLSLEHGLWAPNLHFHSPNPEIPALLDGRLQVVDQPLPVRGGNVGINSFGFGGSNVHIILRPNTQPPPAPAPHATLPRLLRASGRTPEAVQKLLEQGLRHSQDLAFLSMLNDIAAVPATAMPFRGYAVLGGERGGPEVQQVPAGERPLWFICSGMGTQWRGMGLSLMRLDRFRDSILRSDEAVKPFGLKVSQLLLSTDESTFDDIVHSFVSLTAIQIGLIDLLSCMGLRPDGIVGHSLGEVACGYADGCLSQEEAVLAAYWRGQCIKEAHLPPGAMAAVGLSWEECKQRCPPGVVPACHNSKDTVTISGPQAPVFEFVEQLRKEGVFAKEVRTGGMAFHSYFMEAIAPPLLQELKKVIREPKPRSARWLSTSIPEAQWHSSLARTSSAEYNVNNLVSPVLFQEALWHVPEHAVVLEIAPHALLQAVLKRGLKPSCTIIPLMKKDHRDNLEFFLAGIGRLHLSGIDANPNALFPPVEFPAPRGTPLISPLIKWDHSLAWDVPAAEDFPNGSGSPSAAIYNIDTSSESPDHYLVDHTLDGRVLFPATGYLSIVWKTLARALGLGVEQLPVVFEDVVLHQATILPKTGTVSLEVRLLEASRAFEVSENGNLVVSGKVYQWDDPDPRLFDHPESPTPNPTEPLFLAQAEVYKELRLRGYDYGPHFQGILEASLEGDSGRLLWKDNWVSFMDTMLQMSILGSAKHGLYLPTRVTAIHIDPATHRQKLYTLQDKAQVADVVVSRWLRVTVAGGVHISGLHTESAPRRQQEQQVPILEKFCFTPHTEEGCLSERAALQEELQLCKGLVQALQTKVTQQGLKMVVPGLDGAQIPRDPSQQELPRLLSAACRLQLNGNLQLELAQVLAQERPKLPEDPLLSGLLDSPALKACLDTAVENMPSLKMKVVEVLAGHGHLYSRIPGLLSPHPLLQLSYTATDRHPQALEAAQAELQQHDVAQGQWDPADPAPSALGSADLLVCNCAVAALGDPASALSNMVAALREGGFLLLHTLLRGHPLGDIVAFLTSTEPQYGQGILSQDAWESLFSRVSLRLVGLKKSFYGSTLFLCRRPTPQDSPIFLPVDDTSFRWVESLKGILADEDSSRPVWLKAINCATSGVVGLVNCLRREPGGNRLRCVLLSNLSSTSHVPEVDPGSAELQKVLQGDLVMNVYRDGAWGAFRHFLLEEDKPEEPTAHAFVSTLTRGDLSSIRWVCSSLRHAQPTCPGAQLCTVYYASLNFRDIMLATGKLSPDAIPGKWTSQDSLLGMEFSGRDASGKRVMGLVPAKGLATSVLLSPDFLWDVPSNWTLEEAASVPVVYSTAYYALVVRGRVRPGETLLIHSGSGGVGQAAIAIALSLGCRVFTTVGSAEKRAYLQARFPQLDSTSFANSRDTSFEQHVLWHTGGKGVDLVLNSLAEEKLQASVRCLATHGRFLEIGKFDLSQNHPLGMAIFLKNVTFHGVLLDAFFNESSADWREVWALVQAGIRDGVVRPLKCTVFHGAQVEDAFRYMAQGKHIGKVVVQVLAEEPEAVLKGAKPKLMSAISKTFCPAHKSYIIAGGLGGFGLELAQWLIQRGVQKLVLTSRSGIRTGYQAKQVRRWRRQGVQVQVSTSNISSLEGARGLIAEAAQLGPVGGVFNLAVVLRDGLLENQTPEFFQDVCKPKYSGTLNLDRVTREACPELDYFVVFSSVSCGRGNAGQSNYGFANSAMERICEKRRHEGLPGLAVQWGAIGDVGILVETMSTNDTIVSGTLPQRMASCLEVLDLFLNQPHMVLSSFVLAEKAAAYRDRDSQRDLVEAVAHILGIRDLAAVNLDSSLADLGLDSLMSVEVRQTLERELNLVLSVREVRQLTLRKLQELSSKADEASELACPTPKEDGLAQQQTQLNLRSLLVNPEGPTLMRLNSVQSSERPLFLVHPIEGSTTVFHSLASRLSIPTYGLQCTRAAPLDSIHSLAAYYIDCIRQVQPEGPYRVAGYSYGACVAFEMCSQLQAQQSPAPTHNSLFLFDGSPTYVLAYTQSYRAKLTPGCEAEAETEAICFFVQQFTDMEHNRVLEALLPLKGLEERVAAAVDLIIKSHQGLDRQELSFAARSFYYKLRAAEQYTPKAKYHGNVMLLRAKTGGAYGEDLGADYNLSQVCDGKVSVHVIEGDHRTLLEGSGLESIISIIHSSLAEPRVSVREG
Apoptotic protease-activating factor 1, sequence (O14727 whole entry): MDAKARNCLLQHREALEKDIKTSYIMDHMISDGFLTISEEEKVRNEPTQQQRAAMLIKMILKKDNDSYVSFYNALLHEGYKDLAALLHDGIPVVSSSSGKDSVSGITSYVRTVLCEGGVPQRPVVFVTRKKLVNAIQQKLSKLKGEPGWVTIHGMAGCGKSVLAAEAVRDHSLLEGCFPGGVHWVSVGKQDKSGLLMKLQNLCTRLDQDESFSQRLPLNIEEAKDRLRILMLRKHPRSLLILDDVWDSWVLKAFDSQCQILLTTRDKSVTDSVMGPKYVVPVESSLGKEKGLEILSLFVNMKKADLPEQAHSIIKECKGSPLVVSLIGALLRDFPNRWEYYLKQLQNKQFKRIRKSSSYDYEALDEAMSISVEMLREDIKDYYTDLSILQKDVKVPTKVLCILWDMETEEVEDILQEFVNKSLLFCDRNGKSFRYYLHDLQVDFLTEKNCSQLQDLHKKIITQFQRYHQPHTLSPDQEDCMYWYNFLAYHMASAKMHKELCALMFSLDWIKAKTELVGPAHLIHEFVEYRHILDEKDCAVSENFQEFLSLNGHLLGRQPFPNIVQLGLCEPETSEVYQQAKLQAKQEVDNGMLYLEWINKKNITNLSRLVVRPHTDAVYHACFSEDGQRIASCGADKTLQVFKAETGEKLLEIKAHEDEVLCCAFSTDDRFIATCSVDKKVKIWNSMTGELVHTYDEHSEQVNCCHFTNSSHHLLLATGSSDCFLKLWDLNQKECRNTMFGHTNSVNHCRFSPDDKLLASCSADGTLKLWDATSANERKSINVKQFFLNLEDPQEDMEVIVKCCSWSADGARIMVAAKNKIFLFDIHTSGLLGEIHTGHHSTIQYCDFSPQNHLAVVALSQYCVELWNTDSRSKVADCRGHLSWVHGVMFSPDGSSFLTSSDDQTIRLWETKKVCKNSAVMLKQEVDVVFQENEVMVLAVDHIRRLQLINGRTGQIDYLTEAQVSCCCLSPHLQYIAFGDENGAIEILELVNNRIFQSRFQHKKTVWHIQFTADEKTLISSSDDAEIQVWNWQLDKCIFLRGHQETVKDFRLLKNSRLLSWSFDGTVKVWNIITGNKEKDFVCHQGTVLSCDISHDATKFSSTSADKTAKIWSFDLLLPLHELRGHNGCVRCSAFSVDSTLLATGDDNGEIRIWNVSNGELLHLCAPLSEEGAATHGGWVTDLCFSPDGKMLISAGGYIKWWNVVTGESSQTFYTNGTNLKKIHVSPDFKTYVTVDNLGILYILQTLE

IC50 (Fatty acid synthase [1]): 379 nM (active)
IC50 [2]: 19100 nM (active)
IC50 (Fatty acid synthase [3]): 752 nM (active)
Structure (SMILES): CC(C)c1ccc(/C=N/Nc2cc(N3CCOCC3)nc(N3CCOCC3)n2)cc1
